Publication PMC2702281, “HLA-A*0201-restricted CTL epitope of a novel osteosarcoma antigen, papillomavirus binding factor” (Journal of Translational Medicine, 2009)

Tests used:
[1] = system: PBF A2.2-specific CD8+ T cells; assay: LD/MLPC followed by tetramer-based frequency analysis; type: cell-based, human
Excerpt: Prior to frequency analysis and cytotoxicity assays, PBMC of patients were subjected to mixed lymphocyte peptide culture under limiting dilution conditions (LD/MLPC) according to the method described by Karanikas et al. with some modifications. LD/MLPC aims to seed at most one CTL precursor cell per well and induces proliferation of the precursor cell by subsequent mixed lymphocyte peptide culture. For this purpose, the appropriate number of PBMC and CD8^+ cells per well is considered to be 1 × 10^5–2 × 10^5 [17, 24].
PBMCs were used as a source of responder cells in the initial five subjects (Patients 1 and 2 and three healthy donors) and CD8^+ cells were used in the following three patients (Patients 3–5) [see Additional file 2].
PBMC obtained from peripheral blood samples (50 ml) of Patients 1 and 2 and three healthy donors were suspended in AIM-V (Invitrogen Corp., Carlsbad, CA) supplemented with 1% human serum (HS). These cells were incubated for 60 min at room temperature with peptide PBF A2.2 (50 μg/ml). Peptide-pulsed PBMC were seeded at 2 × 10^5 cells/200 μl/well into round-bottom 96-microwell plates in AIM-V with 10%HS, IL-2 (20 U/ml; a kind gift from Takeda Chemical Industries, Ltd., Osaka Japan) and IL-7 (10 ng/ml; R&D Systems, Minneapolis, Minnesota, USA), and incubated. On day 7, half of the medium was replaced with fresh AIM-V containing IL-2, IL-7 and the same peptides. The cell cultures were maintained by adding fresh AIM-V containing IL-2. On days 14–21, they were subjected to tetramer-based frequency analysis.
PBMC obtained from Patients 3–5 were separated into CD8^+ cells and CD8^- cells using magnetic anti-CD8 microbeads (Miltenyi Biotec, Gladbach, Germany). CD8^- cells were pulsed with the PBF A2.2 peptide for 60 min. Half of the CD8^- cells were cryopreserved at -80°C for the second stimulation. CD8^+ cells (1.0–2.1 × 10^5/well) and irradiated PBF A2.2 peptide-pulsed CD8^- cells (1–5 × 10^5/well) were cocultured in 48-well cell culture plates in 500 μl of AIM-V with 10%HS, IL-2 and IL-7. On day 7, the second stimulation was performed by adding irradiated peptide-pulsed CD8^- cells to each culture well in 500 μl of AIM-V with 10%HS, IL-2 and IL-7. On days 13–23, they were subjected to tetramer-based frequency analysis.
An FITC-conjugated HLA-A*0201/HIV tetramer (here termed the control tetramer) and a PE-conjugated HLA-A*0201/PBF A2.2 tetramer (A2/PBF A2.2 tetramer) were constructed by Medical & Biological Laboratories Co., Ltd. (Tokyo, Japan). PBMCs from patients were stimulated with the PBF A2.2 peptide by using the LD/MLPC procedure as described above. From each microwell containing 200 μl of the microculture pool, 100 μl was transferred to a V-bottom microwell and washed. To the spin-down pellets, the control tetramer and A2/PBF A2.2 tetramer (10 nM in 25 μl of PBS) were added in combination and incubated for 15 min at room temperature. Then a PE-Cy5-conjugated anti-CD8 antibody (eBioscience, San Diego, California, USA) was added (dilution of 1:30 in 25 μl of PBS containing the control tetramer and A2/PBF A2.2 tetramer) and incubated for another 15 min. The cells were washed in PBS twice, fixed with 0.5% formaldehyde, and analyzed by flow cytometry using FACScan and CellQuest software (Becton Dickinson, San Jose, California, USA). CD8^+ living cells were gated and the cells labeled with the A2/PBF A2.2 tetramer were referred to as tetramer-positive cells. Tetramer-positive cells in each well are theoretically derived from a single CTL precursor, regardless of the number (percentage) of tetramer-positive cells. Accordingly, the number of tetramer-positive wells represents the number of CTL precursors. The frequency of anti-PBF A2.2 CTLs was evaluated using the following calculation: (number of tetramer-positive wells)/[(total number of tested wells) × (initial number of CD8+ cells per well)].

HLA-A*0201 molecules = HLA-A*0201 molecules (Homo sapiens, UniProt P04439, D140Y/D185E/D98H/E176V/E277Q/G131W/G231S/I119V/I121R/I166T/I218V/L300P/L318F/N151K/N90K/P208A/P217A/Q86G/Q94H/R138H/R169H/T345S); assay: T2 cell surface HLA class I stabilization assay; type: cell-based; conditions: for HLA-peptide binding affinity (%MFI increase ± SD): peptide 50 μg/ml, T2 cells, anti-HLA-A2 mAb BB7.2 staining, triplicate, mean ± SD
[2] = three tetramer-positive patients with osteosarcoma

Experimental for T2 cells: CTL-mediated cytolytic activity was measured by a 6 h-^51Cr-release assay [25]. […] T2 cells were treated with or without peptides at the indicated concentrations for 1 h at room temperature after ^51Cr-labeling. […] Target cells were labeled with 100 μCi of ^51Cr for 1 h at 37°C. The labeled target cells were suspended in RPMI without serum and seeded to microwells (2–5 × 10^3 cells/well).
CTL 5A9 and CTL clones were used as the effector cells. The effector cells were transferred to V-bottom microwells, suspended in AIM-V and mixed with the labeled target cells. After a 6 h incubation period at 37°C, the ^51Cr level in the culture supernatant was measured using an automated gamma counter. The percentage of specific cytotoxicity was calculated as follows: the percentage of specific ^51Cr release = 100 × (experimental release – spontaneous release)/(maximum release – spontaneous release).

| Sequence | HLA-peptide binding affinity (%MFI increase ± SD) (HLA-A*0201 molecules) [%MFI increase] | further results |
| --- | --- | --- |
| ALPSFQIPV [Peptide A2.2] | 74.5 ± 6.6 | Frequency of CTL precursors calculated as 2/5.4 × 10^6 ([1]; Patient 4, 36 wells at 1.5 × 10^5 CD8+ cells per well, tetramer analysis on day 21, Fig. 2): 3.7 × 10^-7; Patients in whom A2/PBF A2.2 tetramer-positive T cells were detected ([1]; five HLA-A*0201+ patients with PBF-positive osteosarcoma): three of the five patients; Frequencies of the PBF A2.2-specific CD8+ T cells, average ([1]; three healthy donors): 2 × 10^-7; Frequencies of the PBF A2.2-specific CD8+ T cells, range ([1]; three healthy donors): 1 × 10^-7 to 3 × 10^-7; Frequencies of the PBF A2.2-specific CD8+ T cells, average [1, 2]: 2 × 10^-6; Frequencies of the PBF A2.2-specific CD8+ T cells, range [1, 2]: 2 × 10^-7 to 5 × 10^-6; Cytotoxicity of five CTL clones (1B1, 1D7, 1E1, 1F4, 1F7) against peptide-pulsed T2 cells (T2 cells): All five CTL clones lysed PBF A2.2 peptide-pulsed T2 cells; %MFI increase in peptide titration experiments (HLA-A*0201 molecules; HLA class I stabilization assay at indicated concentrations, Fig. 1): dose-dependent increases of %MFI; %MFI increase compared among the peptides (HLA-A*0201 molecules; HLA class I stabilization assay, ten PBF-derived peptides): highest %MFI increase among the peptides |
| FETDPDPFL [Peptide A2.7] | 8.2 ± 19.1 | – |
| FETDPDPFLL [Peptide A2.6] | 22.5 ± 9.6 | – |
| FQPGQKVYV [Peptide A2.3] | 2.7 ± 9.4 | – |
| GLVEQHSWM [Peptide A2.4] | 1.8 ± 9.9 | – |
| KVLRSIVGI [Peptide A2.10] | 4.4 ± 9.9 | – |
| MMAAMVLTSL [Peptide A2.5] | 10.5 ± 12.0 | – |
| SMTGLPLSAL [Peptide A2.8] | -1.5 ± 2.5 | – |
| WLLEQKLQV [Peptide A2.1] | 38.8 ± 15.5 | – |
| YQALPSFQI [Peptide A2.9] | 10.2 ± 8.2 | – |
